Data taken from patent publication US20250092064A1, “BENZOTRIAZOLE COMPOUND” (DAIICHI SANKYO COMPANY, LIMITED, priority 2022, published 2025).

Experiments:
[1] = system: NQO1 activity in Hepa1c1c7 cells; test: NAD(P)H: quinone oxidoreductase-1 (NQO1) enzyme induction assay (in vitro); type: cell-based, mouse; conditions: Mus musculus, Hepa-1c1c7, NQO1 activity with 400 nM test compound as a ratio from the base without compound, about 48 hr
Description: The NQO1 assay was performed based on a previous report (Methods in Enzymology 2004; 382: 243-258). Hepa1c1c7 cells (mouse hepatocyte cell line, ATCC, cat. no. CRL-2026) were cultured in D-MEM medium containing 10% FBS and 1% penicillin/streptomycin (5% CO2, 37° C.), and seeded into 96-well plates (Corning REF. 353072) at 1×10^4 cells/well. A portion of the wells were prepared with medium only for background measurement without seeding cells. The next day, 400 nM of the test compound (0.004% of the final concentration in DMSO) dissolved in DMSO was added thereto, and the wells were incubated for about 48 hr. A well without adding the test compound was prepared for base activity assay in part. […] After the medium was removed, 50 μL of the cell lysate was added and incubated at 37° C. for 10 minutes, followed by shaking at room temperature for 10 minutes. 200 μL of reaction solution was added thereto, and allowed to stand for 5 minutes at room temperature. 50 μL of the stop solution was added thereto, and absorbance was measured at 610 nm on a SpectraMax PLUS384 (Molecular devices) or […] Pharma Biomedical). The test results were analyzed in Excel, and the NQO1 activity upon addition of 400 nM of test compound was calculated as a ratio from the base without the compound. NQO1 activity ratio when test compound is added=(absorbance when test compound is added-absorbance of medium only)/(absorbance without addition of compound-absorbance of medium only) [numerical formula 2] The results of each test compound in this test are shown in the following Table 2 (A:5<NQO1 activity ratio, B:3<NQO1 activity ratio≤5).

[2] = biological target: binding between Nrf2 and Keap1 (Homo sapiens (Human), UniProt Q14145); test: FP assay (in vitro): inhibition of Nrf2-Keap1 binding by fluorescence polarization; conditions: GST-fused human Keap1 (325-642) 20 nM, FITC-labeled Nrf2 peptide 10 nM, 2 hr at room temperature
Sequence of binding between Nrf2 and Keap1 (Q14145 325-624 limits assumed): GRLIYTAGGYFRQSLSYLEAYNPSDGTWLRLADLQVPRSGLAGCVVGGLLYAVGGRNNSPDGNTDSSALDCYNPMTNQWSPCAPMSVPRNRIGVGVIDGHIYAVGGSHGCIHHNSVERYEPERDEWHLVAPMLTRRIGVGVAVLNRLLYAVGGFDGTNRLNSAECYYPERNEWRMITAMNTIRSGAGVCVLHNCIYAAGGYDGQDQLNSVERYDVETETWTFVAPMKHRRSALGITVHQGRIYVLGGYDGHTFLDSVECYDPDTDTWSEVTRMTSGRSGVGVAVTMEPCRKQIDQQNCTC

Row | SMILES | fold induction at 0.4 µM [1] | IC50 [2] [nM]
1 | CC[C@@H]1CN(Cc2cc([C@@H](CC(=O)O)c3ccc4c(nnn4C)c3C)cc3ccsc23)C(C)c2nc(O)ccc2O1 (relative stereo) [Example 79, (3R)-3-(1,4-Dimethyl-1H-benzotriazol-5-yl)-3-(7-{[(2R,5R*)-2-ethyl-7-hydroxy-5-methyl-2,3-dihydropyrido[2,3-f][1,4]oxazepin-4(5H)-yl]methyl}-1-benzothiophen-5-yl)propanoic acid] | > 5 | –
2 | CC[C@@H]1Cc2ncccc2S(=O)(=O)N(Cc2cc([C@@H](CC(=O)O)c3ccc4c(nnn4C)c3C)cc3c2CCC3)C1 (single isomer, unassigned) [Example 27, (3R)-3-(1,4-Dimethyl-1H-benzotriazol-5-yl)-3-(7-{[(4S*)-4-ethyl-1,1-dioxido-4,5-dihydropyrido[2,3-f][1,2]thiazepin-2(3H)-yl]methyl}-2,3-dihydro-1H-inden-5-yl)propanoic acid] | > 5 | ≤ 10
3 | CC[C@@H]1Cc2ccccc2S(=O)(=O)N(Cc2cc([C@@H](CC(=O)O)c3ccc4c(nnn4C)c3C)cc3c2CCC3)C1 (single isomer, unassigned) [Example 28, (3R)-3-(1,4-Dimethyl-1H-benzotriazol-5-yl)-3-(7-{[(4S*)-4-ethyl-1,1-dioxido-4,5-dihydro-1,2-benzothiazepin-2(3H)-yl]methyl}-2,3-dihydro-1H-inden-5-yl)propanoic acid] | > 5 | ≤ 10
4 | CC[C@@H]1CN(Cc2cc(C(CC(=O)O)c3cc(Cl)c4c(nnn4C)c3C)cc3c2CCC3)[C@@H](C)c2ncccc2O1 (single isomer, unassigned) [Example 71, (3R*)-3-(7-Chloro-1,4-dimethyl-1H-benzotriazol-5-yl)-3-(7-{[(2R,5S)-2-ethyl-5-methyl-2,3-dihydropyrido[2,3-f][1,4]oxazepin-4(5H)-yl]methyl}-2,3-dihydro-1H-inden-5-yl)propanoic acid] | > 5 | ≤ 10
5 | CC[C@@H]1CN(Cc2cc(C(CC(=O)O)c3cc(Cl)c4c(nnn4C)c3C)cc3c2CCC3)[C@@H](C)c2ncccc2O1 (single isomer, unassigned) [Example 72, (3S*)-3-(7-Chloro-1,4-dimethyl-1H-benzotriazol-5-yl)-3-(7-{[(2R,5S)-2-ethyl-5-methyl-2,3-dihydropyrido[2,3-f][1, 4]oxazepin-4(5H)-yl]methyl}-2,3-dihydro-1H-inden-5-yl)propanoic acid] | – | ≤ 10
6 | CCC1c2ncccc2O[C@H](CC)CN1Cc1cc([C@H](CC(=O)O)c2ccc3c(nnn3C)c2C)cc2ccsc12 (single isomer, unassigned) [Example 76, (3S)-3-(7-{[(2R,5R*)-2,5-Diethyl-2,3-dihydropyrido[2,3-f][1,4]oxazepin-4(5H)-yl]methyl}-1-benzothiophen-5-yl)-3-(1,4-dimethyl-1H-benzotriazol-5-yl)propanoic acid] | > 5 | ≤ 10
7 | CCC1c2ncccc2O[C@H](CC)CN1Cc1cc([C@H](CC(=O)O)c2ccc3c(nnn3C)c2C)cc2ccsc12 (single isomer, unassigned) [Example 77, (3S)-3-(7-{[(2R,5S*)-2,5-Diethyl-2,3-dihydropyrido[2,3-f][1,4]oxazepin-4(5H)-yl]methyl}-1-benzothiophen-5-yl)-3-(1,4-dimethyl-1H-benzotriazol-5-yl)propanoic acid] | – | ≤ 10
8 | CC[C@@H]1CN(Cc2cc([C@@H](CC(=O)O)c3cnc4c(nnn4C)c3C)cc3ccsc23)C(C)c2nc(O)ccc2O1 (single isomer, unassigned) [Example 81, (3R)-3-(3,7-Dimethyl-3H-[1,2,3]triazolo[4,5-b]pyridin-6-yl)-3-(7-{[(2R,5S*)-2-ethyl-7-hydroxy-5-methyl-2,3-dihydropyrido[2,3-f][1,4]oxazepin-4(5H)-yl]methyl}-1-benzothiophen-5-yl)propanoic acid] | 3 to 5 | –
9 | Cc1c([C@H](CC(=O)O)c2cc(CN3C[C@@H](C4CC4)Oc4ccc(O)nc4C3C)c3sccc3c2)ccc2c1nnn2C (single isomer, unassigned) [Example 84, (3R)-3-(7-{[(2R,5R*)-2-Cyclopropyl-7-hydroxy-5-methyl-2,3-dihydropyrido[2,3-f][1,4]oxazepin-4(5H)-yl]methyl}-1-benzothiophen-5-yl)-3-(1,4-dimethyl-1H-benzotriazol-5-yl)propanoic acid] | – | 30 to 100
10 | Cc1c([C@H](CC(=O)O)c2cc(CN3CC4(CC4)Oc4ccc(O)nc4C3C)c3sccc3c2)ccc2c1nnn2C (single isomer, unassigned) [Example 87, (3R)-3-(1,4-Dimethyl-1H-benzotriazol-5-yl)-3-(7-{[(5′S*)-7′-hydroxy-5′-methyl-3′H-spiro[cyclopropane-1,2′-pyrido[2,3-f][1,4]oxazepin]-4′(5′H)-yl]methyl}-1-benzothiophen-5-yl)propanoic acid] | > 5 | –
11 | CC[C@@H]1CN(Cc2cc(C(CC(=O)O)c3ccc4c(nnn4C)c3C)cc3c2CCC3)S(=O)(=O)c2ccc(Cl)cc2O1 (stereo partly drawn) [Example 15, 3-(7-{[(4R)-7-Chloro-4-ethyl-1,1-dioxido-3,4-dihydro-2H-5,1,2-benzoxathiazepin-2-yl]methyl}-2,3-dihydro-1H-inden-5-yl)-3-(1,4-dimethyl-1H-benzotriazol-5-yl)propanoic acid] | – | 30 to 100
12 | Cc1c(C(CC(=O)O)c2cc3c(c(CN4CC5(CCOCC5)Oc5ncccc5S4(=O)=O)c2)CCC3)ccc2c1nnn2C (stereo not shown) [Example 33, 3-(1,4-Dimethyl-1H-benzotriazol-5-yl)-3-{7-[(1,1′-dioxido-2,3,5,6-tetrahydrospiro[pyran-4,4′-pyrido[2,3-b][1,4,5]oxathiazepine]-2′(3′H)-yl)methyl]-2,3-dihydro-1H-inden-5-yl}propanoic acid] | – | 30 to 100
13 | Cc1c(C(CC(=O)O)c2cc3c(c(CN4CC5(CCC5)Oc5ncccc5S4(=O)=O)c2)CCC3)ccc2c1nnn2C (stereo not shown) [Example 35, 3-(1,4-Dimethyl-1H-benzotriazol-5-yl)-3-{7-[(1,1′-dioxido-spiro[cyclobutane-1,4′-pyrido[2,3-b][1,4,5]oxathiazepine]-2′(3′H)-yl)methyl]-2,3-dihydro-1H-inden-5-yl}propanoic acid] | – | 10 to 30
14 | Cc1c(C(CC(=O)O)c2cc3c(c(CN4CC5(COC5)Oc5ncccc5S4(=O)=O)c2)CCC3)ccc2c1nnn2C (stereo not shown) [Example 36, 3-(1,4-Dimethyl-1H-benzotriazol-5-yl)-3-{7-[(1,1′-dioxido-spiro[oxetane-3,4′-pyrido[2,3-b][1,4,5]oxathiazepine]-2′ (3′H)-yl)methyl]-2,3-dihydro-1H-inden-5-yl}propanoic acid] | – | 10 to 30
15 | CC[C@@H]1CN(Cc2cc([C@H](CC(=O)O)c3ccc4c(nnn4C)c3C)cc3ccsc23)[C@@H](C)c2ncccc2O1 [Example 62, (3S)-3-(1,4-Dimethyl-1H-benzotriazol-5-yl)-3-(7-{[(2R,5S)-2-ethyl-5-methyl-2,3-dihydropyrido[2,3-f][1,4]oxazepin-4(5H)-yl]methyl}-1-benzothiophen-5-yl)propanoic acid] | – | 10 to 30
